Reference: patent US8546452B2, “S1P3 receptor antagonist” (TOA Eiyo Ltd., priority 2005, dated 2013)

How the values were obtained:
[1] = Time to reach the maximum blood concentration after oral administration; type: in vivo; details: oral administration (1 mg/kg)
[2] = test system: FTY720-induced bradycardia; experiment: Effect on hemodynamic changes (bradycardia) caused by FTY720 in anesthetized rat; type: in vivo; details: FTY720 1 mg/kg intravenously
Description: Thus, the effects of the compound of the present invention on the FTY720-induced bradycardia were examined.
A rat was anesthetized with pentobarbital (50 mg/kg, intraperitoneal administration), and then catheters for drug administration and blood pressure measurement were inserted into the lower limb vein and the carotid artery, respectively. The blood pressure was measured with a strain pressure amplifier via a pressure transducer. The heart rate was measured with a tachometer by means of the electrocardiographic wave. The FTY720 used was purchased from Cayman Chemical Co.
FTY720 (1 mg/kg) was intravenously administered, and the effects thereof on hemodynamics were investigated by measuring the blood pressure and the heart rate at 0 minute (immediately before administration), and 10, 20 and 30 minutes immediately after the intravenous administration.

Row | time to reach the maximum blood concentration [1] | SMILES | heart rate, effect of FTY720 [2]
1 | 4 h | CC(C)(C)C(=O)/C(=N/c1ccc(Cl)cc1)NNc1ccc(Cl)cc1 [Compound 33, 1-(4-chlorophenylamino)-1-(4-chlorophenylhydrazono)-3,3-dimethyl-2-butanone] | –
2 | – | CCCCCCCCc1ccc(CCC(N)(CO)CO)cc1 [FTY720] | reduced the heart rate and induced bradycardia
